The target in test [1] is human full length His-tagged BTK (Homo sapiens (Human), UniProt Q06187). The test is described as follows: BTK Lanthscreen Eu Kinase Binding assay. To be noted: 2 nM BTK. As to the method:
BTK Lanthscreen® Eu Kinase Binding Assay:
A Lanthscreen® Eu Kinase Binding assay (Life Technologies) is performed to quantitate the ability of test compounds to bind to BTK. The assay is based on the binding and displacement of Alexa Fluor647-labeled Kinase Tracer #236 to the ATP-binding site of human full length His-tagged BTK (Life Technologies cat #PV3587) with TR-FRET detection using a europium-labeled anti-His antibody. The assay is assembled in 384-well low volume NBS black plates (Corning) where 2 nM BTK and test compound in DMSO at varying concentrations are pre-incubated for 30 min at 28° C. in assay buffer consisting of 50 mM HEPES, pH 7.4, 10 mM MgCl2, 1 mM EGTA. 100 μM Na3VO4 and 0.01% Brij 35. Then, 2 nM of Eu-anti His antibody and 30 nM Kinase Tracer are added and incubated for 60 min at 28° C. Following incubation, TR-FRET signal is read on an Envision plate reader (Excitation: 340 nm; Emissions: 615 and 665 nm). The 665:615 nm emission ratio is calculated and converted to POC compared to control and blank wells.

Test [2] concerns BTK (IL-6 production in primary CD19+ B cells). In words: Inhibition of IL-6 production in B cells co-stimulated with ODN 2006 and anti-hIgD. It is filed as cell-based. The note with it: B-cell, anti-human IgD + ODN 2006. As to the method:
Inhibition of IL-6 Production in B Cells Co-Stimulated with ODN 2006 and anti-hIgD
Primary CD19+ B cells (AllCells #PB010F) are thawed and plated in RPMI containing 10% HI FBS in a 384-well tissue cultured plate at 20,000 cells/well. The cells are treated with test compound (0.5% DMSO final concentration) and incubated for 1 hour at 37° C., 5% CO2. Cells are then stimulated with 5 ug/mL Goat F(ab′)2 anti-human IgD (SouthernBiotech #2032) and 2 uM ODN 2006 (InvivoGen #tlrl-2006) and incubated for 18-24 hours at 37° C., 5% CO2. IL-6 in the supernatant is measured using Meso Scale Discovery kit #K211AKB-6.
(§1) Representative compounds of the present invention are tested and show BTK inhibition (Table I). […] Additionally, compounds of the present invention, as represented by examples in Table II, are selective for BTK inhibition over other related kinases. […] In this table the BTK activity is measured by IL-6 production in primary CD19^+ B cells, and the EGFR activity is measured by EGFR phosphorylation in A431 cells.

The target of test [3] is EGFR (EGFR phosphorylation in A431 cells) (Homo sapiens (Human), UniProt P00533). In words: Inhibition of EGFR autophosphorylation in A431 human epithelial cells stimulated with EGF. Format: cell-based. The note with it: EGF 60 ng/mL, read-out: A431 p-EGFR IC50. As to the method:
Inhibition of EGFR Autophosphorylation in A431 Human Epithelial Cells Stimulated with Epithelial Growth Factor
A431 cells (ATCC #CRL-1555 FZ) are thawed and plated in DMEM containing 10% FBS in a 384-well tissue culture treated plate at 15,000 cells/well. After incubating for 24 hours at 37° C., 5% CO2, the cells are treated with test compound (1% DMSO final concentration) and incubated for 16 hours at 37° C., 5% CO2. EGF (Millipore, 01-107) is added at a final concentration of 60 ng/mL and incubated for 10 minutes. The medium is removed, the cells are lysed, and phospho EGFR is measured (Meso Scale Diagnostics, N31CB-1).
as §1

Test [4] addresses human recombinant BTK (full length, His-tagged) (Homo sapiens (Human), UniProt Q06187). The test is described as follows: BTK Z'-LYTE assay.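 Note: FRET readout of kinase phosphorylating a coumarin and fluorescein labelled synthetic peptide, detected via protease sensitivity of unphosphorylated versus phosphorylated substrate, incubated at 22 °C in 384-well plates.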 It is filed as biochemical. To be noted: 25 μM ATP.
Method: Z′-LYTE™ Assay (Life Technologies):
(§2) The Z′-Lyte assay employs a FRET-based, coupled-enzyme format and is based on the differential sensitivity of phosphorylated and non-phosphorylated peptides to proteolytic Cleavage. The activity of human recombinant BTK (full length, His-tagged), BMX (full length, His-tagged) or Txk (full length, GST-tagged) is estimated by measuring the phosphorylation of a synthetic FRET peptide substrate labeled with Coumarin and Fluorescein. […] Incubations are carried out at 22° C. in black polypropylene 384-well plates (Corning).
(§3) Representative compounds of the present invention are assessed for inhibition of BTK, BMX, and TXK measuring phosphorylation of a substrate (Z′-LYTE™ assay, Life Technologies) and TEC measuring displacement of a “tracer” (Lanthscreen® Eu Kinase Binding assay, Life Technologies).
Test [5] addresses human recombinant full length TEC (His-tagged) (Homo sapiens (Human), UniProt P42680). In words: TEC Lanthscreen Eu Kinase Binding assay. To be noted: 1 nM TEC.
For test [6], the target named is human recombinant Txk (full length, GST-tagged) (Homo sapiens (Human), UniProt P42681). In words: TXK Z'-LYTE assay.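 Note: FRET read-out of kinase phosphorylation of a synthetic peptide labelled with Coumarin and Fluorescein, scored by protease sensitivity of unphosphorylated peptide, incubated at 22 °C.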 The note with it: read-out: TXK IC50, 100 μM ATP.
Method: Z′-LYTE™ Assay (Life Technologies):
as §2, §3

SMILES strings stand for the structures. A value given as a limit tells only on which side of the number the result lay.

Chain of EGFR (EGFR phosphorylation in A431 cells) (P00533 25-1210): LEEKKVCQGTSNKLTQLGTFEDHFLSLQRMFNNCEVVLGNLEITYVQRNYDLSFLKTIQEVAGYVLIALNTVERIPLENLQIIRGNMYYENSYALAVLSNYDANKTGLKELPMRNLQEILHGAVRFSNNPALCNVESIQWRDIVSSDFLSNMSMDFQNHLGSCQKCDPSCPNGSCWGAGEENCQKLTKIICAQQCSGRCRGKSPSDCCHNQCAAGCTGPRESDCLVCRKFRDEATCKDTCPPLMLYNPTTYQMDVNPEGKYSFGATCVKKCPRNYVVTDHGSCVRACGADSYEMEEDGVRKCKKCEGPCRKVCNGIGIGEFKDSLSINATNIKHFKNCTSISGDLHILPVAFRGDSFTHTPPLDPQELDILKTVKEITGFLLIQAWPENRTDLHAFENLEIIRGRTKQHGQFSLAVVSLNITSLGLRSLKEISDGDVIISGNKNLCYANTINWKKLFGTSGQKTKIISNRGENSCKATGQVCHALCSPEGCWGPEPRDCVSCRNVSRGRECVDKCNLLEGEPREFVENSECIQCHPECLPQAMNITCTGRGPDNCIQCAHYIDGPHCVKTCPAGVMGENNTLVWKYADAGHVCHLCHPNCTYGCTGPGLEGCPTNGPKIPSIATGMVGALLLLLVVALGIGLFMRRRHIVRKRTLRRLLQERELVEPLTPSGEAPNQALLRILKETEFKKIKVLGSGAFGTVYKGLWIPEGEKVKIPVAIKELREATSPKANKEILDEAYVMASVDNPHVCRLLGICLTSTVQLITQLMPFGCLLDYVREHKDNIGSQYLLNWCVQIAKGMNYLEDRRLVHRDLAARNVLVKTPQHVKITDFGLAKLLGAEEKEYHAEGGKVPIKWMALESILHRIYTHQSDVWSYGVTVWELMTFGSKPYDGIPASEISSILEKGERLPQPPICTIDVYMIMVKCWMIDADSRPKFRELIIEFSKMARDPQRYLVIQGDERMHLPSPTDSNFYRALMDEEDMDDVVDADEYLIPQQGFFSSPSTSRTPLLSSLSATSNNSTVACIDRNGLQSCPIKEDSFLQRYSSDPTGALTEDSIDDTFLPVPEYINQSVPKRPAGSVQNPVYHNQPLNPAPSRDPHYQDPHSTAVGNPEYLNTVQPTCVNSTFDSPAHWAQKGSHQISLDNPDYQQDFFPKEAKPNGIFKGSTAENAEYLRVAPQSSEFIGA
Chain of human recombinant Txk (full length, GST-tagged) (P42681 whole entry): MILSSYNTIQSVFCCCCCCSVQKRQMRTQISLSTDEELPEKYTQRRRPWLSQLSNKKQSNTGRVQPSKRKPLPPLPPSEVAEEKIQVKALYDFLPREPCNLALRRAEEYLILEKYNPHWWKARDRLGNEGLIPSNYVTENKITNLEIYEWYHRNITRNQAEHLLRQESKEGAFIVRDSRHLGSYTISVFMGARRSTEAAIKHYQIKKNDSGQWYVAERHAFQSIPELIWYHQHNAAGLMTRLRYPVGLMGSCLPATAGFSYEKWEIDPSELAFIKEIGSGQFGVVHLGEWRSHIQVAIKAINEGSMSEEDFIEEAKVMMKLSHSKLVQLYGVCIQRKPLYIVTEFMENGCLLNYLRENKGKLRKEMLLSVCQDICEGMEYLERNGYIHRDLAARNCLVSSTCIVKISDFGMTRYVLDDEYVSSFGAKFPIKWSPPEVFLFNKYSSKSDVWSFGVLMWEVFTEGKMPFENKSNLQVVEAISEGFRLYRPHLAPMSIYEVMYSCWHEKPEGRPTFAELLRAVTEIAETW
Chain of human full length His-tagged BTK (Q06187 whole entry): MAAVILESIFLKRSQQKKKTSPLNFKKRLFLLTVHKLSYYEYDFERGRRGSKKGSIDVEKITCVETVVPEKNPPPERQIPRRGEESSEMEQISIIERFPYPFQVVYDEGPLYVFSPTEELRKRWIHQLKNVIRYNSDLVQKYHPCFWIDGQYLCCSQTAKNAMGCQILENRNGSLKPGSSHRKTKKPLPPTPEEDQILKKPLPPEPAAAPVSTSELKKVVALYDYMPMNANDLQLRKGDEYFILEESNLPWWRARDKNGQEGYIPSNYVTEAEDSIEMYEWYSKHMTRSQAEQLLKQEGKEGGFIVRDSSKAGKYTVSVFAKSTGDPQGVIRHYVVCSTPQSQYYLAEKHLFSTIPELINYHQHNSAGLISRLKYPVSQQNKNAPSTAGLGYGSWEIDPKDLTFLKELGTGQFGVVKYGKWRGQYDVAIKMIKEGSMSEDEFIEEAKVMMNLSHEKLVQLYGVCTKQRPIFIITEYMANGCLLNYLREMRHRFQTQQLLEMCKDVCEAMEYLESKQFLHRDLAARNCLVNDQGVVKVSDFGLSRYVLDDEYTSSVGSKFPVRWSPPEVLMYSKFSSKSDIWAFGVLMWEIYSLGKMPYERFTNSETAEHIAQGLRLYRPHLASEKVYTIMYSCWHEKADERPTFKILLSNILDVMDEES
Chain of human recombinant BTK (full length, His-tagged) (Q06187 whole entry): as above
Chain of human recombinant full length TEC (His-tagged) (P42680 whole entry): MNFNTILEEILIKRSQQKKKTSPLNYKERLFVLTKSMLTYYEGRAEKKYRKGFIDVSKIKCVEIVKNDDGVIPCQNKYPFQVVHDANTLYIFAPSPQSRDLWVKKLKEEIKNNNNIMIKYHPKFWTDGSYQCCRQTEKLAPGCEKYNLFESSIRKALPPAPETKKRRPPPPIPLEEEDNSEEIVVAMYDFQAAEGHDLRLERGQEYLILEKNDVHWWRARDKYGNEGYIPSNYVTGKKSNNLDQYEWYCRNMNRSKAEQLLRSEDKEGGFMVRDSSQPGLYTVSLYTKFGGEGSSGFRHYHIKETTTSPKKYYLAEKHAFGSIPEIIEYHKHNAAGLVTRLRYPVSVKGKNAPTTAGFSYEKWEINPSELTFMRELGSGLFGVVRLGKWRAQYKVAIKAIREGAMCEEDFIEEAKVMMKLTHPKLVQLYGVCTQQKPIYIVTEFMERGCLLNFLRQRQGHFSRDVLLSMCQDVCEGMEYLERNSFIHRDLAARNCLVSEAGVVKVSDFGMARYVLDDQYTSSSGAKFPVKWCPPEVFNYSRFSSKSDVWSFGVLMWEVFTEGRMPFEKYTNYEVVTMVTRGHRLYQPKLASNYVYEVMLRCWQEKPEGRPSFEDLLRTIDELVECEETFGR

In the case of `CC#CC(=O)N1CC[C@]2(C1)C[C@H](n1nc(-c3cnn(Cc4cccc(C(F)(F)F)c4C)c3)c(C(N)=O)c1N)C2` [Example 6], the IC50 (in general, the point on the concentration scale where inhibition reaches its midpoint) was 0.4 nM in test [1]; 1 nM in test [2]; above 10000 nM in test [3]; 1.5 nM in test [4]; 65 nM in test [5]; 43 nM in test [6].
Take `CC#CC(=O)N1CC[C@]2(C1)C[C@H](n1nc(-c3cnn(Cc4cccc(C(F)(F)F)c4C#N)c3)c(C(N)=O)c1N)C2` [Example 10]: the IC50 in test [1] was 0.5 nM; in test [2], 1.1 nM; in test [3], above 10000 nM; in test [4], 1.4 nM; in test [5] it was 120 nM; in test [6], 100 nM.
For the compound `CC#CC(=O)N1CC[C@]2(C1)C[C@H](n1nc(-c3cnn(Cc4ccccc4C)c3)c(C(N)=O)c1N)C2` [Example 16], the IC50 was 1.5 nM in test [1]; 2 nM in test [2]; above 10000 nM in test [3]; 13 nM in test [4]; 220 nM in test [5]; 430 nM in test [6].
With `CC#CC(=O)N1CC[C@]2(C1)C[C@H](n1nc(-c3cn(Cc4cccc(C(F)(F)F)c4)nc3C)c(C(N)=O)c1N)C2` [Example 19], the IC50 in test [1] was 0.9 nM; in test [2], 2.3 nM; in test [3], above 10000 nM; in test [4], 5 nM; in test [5] it was 160 nM; in test [6], 220 nM.
Consider `CC#CC(=O)N1CC[C@]2(C1)C[C@H](n1nc(-c3c(C)nn(Cc4cccc(C(F)(F)F)c4)c3C)c(C(N)=O)c1N)C2` [Example 21], for which the IC50 in test [1] was 5.8 nM; in test [2], 9.2 nM; in test [3] it was above 10000 nM; in test [4] it was 40 nM; in test [5] it was 1100 nM; in test [6], 1900 nM.
As for `CC#CC(=O)N1CC[C@]2(C1)C[C@H](n1nc(-c3cnn(Cc4cccc(C(F)(F)F)c4)c3)c(C(N)=O)c1NC)C2` [Example 23], the IC50 in test [1] was 1.3 nM; in test [2] it was 4.5 nM; in test [3], above 10000 nM; in test [4] it was 8.3 nM; in test [5], 130 nM; in test [6], 600 nM.
For the compound `CC#CC(=O)N1CC[C@]2(C1)C[C@H](n1nc(-c3ccn(Cc4cccc(C(F)(F)F)c4)n3)c(C(N)=O)c1N)C2` [Example 25], the half-inhibitory concentration (IC50) in test [1] was 2.6 nM; in test [2], 6.1 nM; in test [3], above 10000 nM; in test [4], 19 nM; in test [5], 160 nM; in test [6] it was 850 nM.
Turning to `C=CC(=O)N1CC[C@]2(C1)C[C@H](n1nc(-c3cnn(Cc4cccc(C(F)(F)F)c4F)c3)c(C(N)=O)c1N)C2` [Example 26], the IC50 was 2.6 nM in test [1]; 4 nM in test [2]; above 10000 nM in test [3]; 18 nM in test [4]; 430 nM in test [5]; 3000 nM in test [6].
For the compound `CC#CC(=O)N1CC[C@]2(C1)C[C@H](n1nc(-c3cnn(Cc4ccc(F)c(C(F)(F)F)c4)c3)c(C(N)=O)c1N)C2` [Example 30], the IC50 in test [1] was 0.6 nM; in test [2], 2.4 nM; in test [3] it was above 10000 nM; in test [4], 3 nM; in test [5], 64 nM; in test [6] it was 160 nM.
Regarding `CC#CC(=O)N1CC[C@]2(C1)C[C@H](n1nc(-c3cnn(Cc4cccc(C(F)(F)F)c4F)c3)c(C(N)=O)c1N)C2` [Example 33], the IC50 in test [1] was 0.4 nM; in test [2], 1.2 nM; in test [3], above 10000 nM; in test [4], 1.3 nM; in test [5], 48 nM; in test [6] it was 59 nM.
Turning to `CC#CC(=O)N1CC[C@]2(C1)C[C@H](n1nc(-c3cnn(Cc4cccc(C(F)F)c4)c3)c(C(N)=O)c1N)C2` [Example 36], the IC50 in test [1] is 0.2 nM; in test [2] it was 0.5 nM; in test [3], above 10000 nM; in test [4], 1 nM; in test [5] it was 22 nM; in test [6] it was 50 nM.
For `CC#CC(=O)N1CC[C@]2(C1)C[C@H](n1nc(-c3cnn(Cc4ccccc4)c3)c(C(N)=O)c1N)C2` [Example 44], the IC50 in test [1] is 0.3 nM; in test [2], 0.7 nM; in test [3] it was above 10000 nM; in test [4] it was 1.4 nM; in test [5], 20 nM; in test [6] it was 78 nM.
Take `CC#CC(=O)N1CC2(CC(n3nc(-c4cnn(Cc5cccc(C(F)(F)F)c5)c4)c(C(N)=O)c3N)C2)C1` [Example 47]: the IC50 in test [1] is 0.5 nM; in test [2], 1.1 nM; in test [3], above 10000 nM; in test [4] it was 2.7 nM; in test [5], 34 nM; in test [6], 310 nM.
In the case of `CC#CC(=O)N1CC[C@]2(C1)C[C@H](n1nc(-c3cnn(Cc4cccc(C5CC5)c4)c3)c(C(N)=O)c1N)C2` [Example 51], the 50% inhibitory concentration (IC50) is 0.3 nM in test [1]; 1.9 nM in test [2]; above 10000 nM in test [3]; 0.8 nM in test [4]; 18 nM in test [5]; 12 nM in test [6].
For `CC#CC(=O)N1CC[C@]2(C1)C[C@H](n1nc(-c3cn(Cc4cccc(C)c4)nc3C)c(C(N)=O)c1N)C2` [Example 52], the IC50 in test [1] is 1.2 nM; in test [2], 0.5 nM; in test [3], above 10000 nM; in test [4], 7 nM; in test [5] it was 100 nM; in test [6], 260 nM.
For `CC#CC(=O)N1CC[C@]2(C1)C[C@H](n1nc(-c3cnn(Cc4cccc(F)c4Cl)c3)c(C(N)=O)c1N)C2` [Example 53], the IC50 was 0.3 nM in test [1]; 0.4 nM in test [2]; above 10000 nM in test [3]; 1.3 nM in test [4]; 47 nM in test [5]; 84 nM in test [6].
In the case of `CC#CC(=O)N1CC[C@]2(C1)C[C@H](n1nc(-c3cnn(Cc4ccccc4Cl)c3)c(C(N)=O)c1N)C2` [Example 54], the IC50 in test [1] was 0.5 nM; in test [2], 0.4 nM; in test [3] it was above 10000 nM; in test [4], 1.5 nM; in test [5], 35 nM; in test [6], 110 nM.
For the compound `CC#CC(=O)N1CC[C@]2(C1)C[C@H](n1nc(-c3cnn(Cc4cc(F)ccc4Cl)c3)c(C(N)=O)c1N)C2` [Example 55], the IC50 in test [1] was 0.7 nM; in test [2], 1.5 nM; in test [3], above 10000 nM; in test [4] it was 2.5 nM; in test [5], 67 nM; in test [6] it was 79 nM.
For `CC#CC(=O)N1CC[C@]2(C1)C[C@H](n1nc(-c3cnn(Cc4cccc(F)c4C(F)(F)F)c3)c(C(N)=O)c1N)C2` [Example 56], the IC50 was 0.6 nM in test [1]; 0.7 nM in test [2]; above 10000 nM in test [3]; 2.2 nM in test [4]; 120 nM in test [5]; 150 nM in test [6].
Turning to `CC#CC(=O)N1CC[C@]2(C1)C[C@H](n1nc(-c3cnn(Cc4ccccc4F)c3)c(C(N)=O)c1N)C2` [Example 60], the IC50 in test [1] was 0.5 nM; in test [2], 0.6 nM; in test [3], above 10000 nM; in test [4], 1.7 nM; in test [5], 35 nM; in test [6], 100 nM.

The values above are taken from US9975882B2, “Heteroaromatic compounds as BTK inhibitors” (Boehringer Ingelheim International GmbH, priority 2015, dated 2018).
